Reference: patent US7041290B2, “Molecules and methods for inhibiting shedding of KIM-1” (Biogen Idec MA Inc., priority 2001, dated 2006)

What was measured:
[1] = system: Renal carcinoma cells 769-P; experiment: Cell viability with the mitochondria dye MTT; type: cell-based, human; settings: end of the 28h-culture period, 0.5 to 32 μm
Protocol: (§1) Stock solutions of BB-94 and GM6001 were maintained in DMS0 at a concentration of 70 mM for BB-94 and 2.5 mM for GM6001. Compounds were diluted directly into fresh medium to concentrations ranging from 0.5 μm to 32 μm. Renal carcinoma cells 769-P were grown in RPMI medium supplemented with 10% fetal bovine serum, 10 mM HEPES, and 1 mM sodium pyruvate, and in the presence of various concentrations of BB-94 and GM6001 for 28 hours. […] The amount of soluble KIM-1 released into the extracellular milieu during the 28h-period was measured by ELISA (FIG. 5).

[2] = system: shedding of KIM-1, renal carcinoma cells 769-P; experiment: Shedding of KIM-1 in 769-P cell culture, soluble KIM-1 by ELISA; type: cell-based, human; settings: 769-P cells, 28 hours; for inhibition of KIM-1 shedding: 32 μM
Protocol: BB-94 (batismatat) and GM6001 (Ilomastat), are two broad spectrum hydroxamic acid-based zinc metalloproteinase inhibitors which inhibit several matrix metalloproteinases (MMP) (20). BB-94 is also a potent inhibitor of TACE (TNF alpha converting enzyme) (18). The activity of these two inhibitors on the shedding of KIM-1 in cell culture was examined.
as §1

Row | IC50 [2] | IC50 ([2]; Homo sapiens) | Structure (SMILES) | cytotoxicity (cell viability, MTT) [1] | inhibition of KIM-1 shedding [2]
1 | ~1 µM | – | CNC(=O)[C@H](Cc1ccccc1)NC(=O)[C@H](CC(C)C)[C@H](CSc1cccs1)C(=O)NO [BB-94, batismatat] | absence of cytotoxicity | complete inhibition
2 | – | ~4 µM | CNC(=O)[C@H](Cc1c[nH]c2ccccc12)NC(=O)[C@@H](CC(=O)NO)CC(C)C [GM6001, Ilomastat] | absence of cytotoxicity | complete inhibition
